What was measured:
[1] = established for known ergot alkaloids; cited from earlier work
[2] = literature comparison; cited from earlier work
[3] = tested on: heart in situ; test: effect on heart in situ in rats; format: in vivo; conditions: slow infusion
Experimental: The effect of ergotaminine, ergosinine and ergocrystinine on heart in situ was examined in rats. The thorax of narcotized rats (0.7 ml of 25% urethane solution per 100 g of the body weight, administered subcutaneously) was opened. The heart was placed into a special basket with a balloon, which was connected over a polyethylene cannula to a transducer "Mini Pressure Transducer--Beckmann" and dynograph Beckmann. As the left wall of the ventricle leant against the balloon, the contraction of the ventricle could be recorded. Over a tracheal tube the rats were connected to an artificial breathing apparatus.

[4] = tested on: smooth muscles of blood vessels; test: effect on blood pressure drop in rats with cut spinal cord; format: in vivo, rats (variety Wistar); conditions: for long-duration hypertension (effect in words): 4.5 mg/kg of body weight; for vasoconstrictory effect: contraction of smooth muscles of blood vessels
Source text: Rats (variety Wistar) in urethane narcosis were cut their spinal cord in the region of the second cervical vertebra and connected to an artificial breathing apparatus (B. Melsungen). By this intervention the central regulation of blood pressure was eliminated. In so treated animals blood pressure dropped for about 50 mm Hg. The experiment was supposed to show whether the examined substances directly affected the smooth muscles of blood vessels.

[5] = tested on: arrhythmias induced by adrenalin; test: effect on arrhythmia induced by adrenalin; format: in vivo; conditions: guinea pigs
Experimental: For experiments, guinea pigs of both sexes, weighing from 400 to 550 g, were used. The narcotized animals (urethane 1.6 g/kg of body weight, intraperitoneally) were at first intravenously administered adrenalin (0.02 mg/kg) and then dextrorotatory ergot alkaloids. 1 hour and 1.5 hours after the administration of dextrorotatory ergot alkaloids, adrenalin was again administered intravenously (0.02 mg/kg) and the presence as well as duration of arrhythmias was ascertained.

[6] = tested on: isolated heart of a guinea pig; test: effect on isolated heart of a guinea pig, modified Langendorff's method
Source text: The effect of dextrorotatory ergot alkaloids according to the invention on heart in vitro was examined on isolated heart of a guinea pig by the modified Langendorff's method (Zalar et al., Poll. Chim. Farmac. 114, 1975, 146). Alkaloids were infused by an apparatus for slow infusion (B. Melsungen).

[7] = tested on: alpha-adrenergic receivers of the dilatating pupil muscle; test: effect on the function of the pupil (mydriatic effect, Polewka's method); format: in vivo; conditions: 5 mg/kg intravenously, mouse
Experimental: The phenomenon of mydriasis induced by ergot alkaloids results from the stimulation of alpha-adrenergic receivers of the dilatating pupil muscle (Z. Votava et al., Arch. int. Pharmacodin. 45, 1958, 114).
The mydriatic effect of dextrorotatory ergot alkaloids administered intravenously was determined with a monocular measuring magnifying glass by Polewka's method (A. R. Turner, Screening Methods in Pharmacology, 1965, p. 174 ff.).
The size of the pupil was measured at first before the administration of the substance and then 15, 30 and 60 minutes after intravenous administration of alkaloids into the mouse tail (dose 5 mg/kg of body weight).

[8] = tested on: spontaneously hypertensive rats; test: effect on arterial pressure of spontaneously hypertensive rats; format: in vivo, rats (variety Okamoto Aoki F32)
Experimental: For the experiment groups of 10 spontaneously hypertensive rats (variety Okamoto Aoki F32) of both sexes, weighing from 200 to 250 g, were used. The acid addition salts of said dextrorotatory ergot alkaloids were administered intraperitoneally in doses of 50 mcg/kg of body weight and systolic blood pressure was measured on the rats' tails by means of plethysmographic method (K. Okamoto and K. Aoki, Jap. Circulat. J. 27, 1963, 282).

[9] = acute toxicity (LD50), intraperitoneal administration; conditions: mouse, in vivo, ip, male mice, 24 hours after administration
Experimental: The volume of injected solution was 0.01 ml/g of body weight. In the following Table I acute toxicity of dextrorotatory ergot alkaloids in comparison with levorotatory ergot alkaloids 24 hours after the intraperitoneal administration is given.

[10] = spontaneously hypertensive rats, 50 mcg/kg intraperitoneally

SMILES: CN1C[C@H](C(=O)N[C@]2(C)O[C@@]3(O)[C@@H]4CCCN4C(=O)[C@H](Cc4ccccc4)N3C2=O)C[C@@H]2c3cccc4[nH]cc(c34)C[C@H]21 [dihydroergotamine]
- heart action (bradycardia) [1]: bradycardia
- vasoconstrictory effect [2]: vasoconstrictory effect

SMILES: CC(C)[C@@]1(NC(=O)[C@H]2C=C3c4cccc5[nH]cc(c45)C[C@H]3N(C)C2)O[C@@]2(O)[C@@H]3CCCN3C(=O)[C@H](Cc3ccccc3)N2C1=O [ergocristinine]
- increase of the strength of heart contraction ([3]; 250 mcg/kg intravenously): 15%
- increase of the strength of heart contraction ([3]; 300 mcg/kg intravenously): 30%
- long-duration hypertension (effect in words) [4]: no effect

SMILES: CC(C)C[C@H]1C(=O)N2CCC[C@H]2[C@]2(O)O[C@@](C)(NC(=O)[C@H]3C=C4c5cccc6[nH]cc(c56)C[C@H]4N(C)C3)C(=O)N12 [ergosinine]
- increase of the strength of heart contraction ([3]; 250 mcg/kg intravenously): 15%
- increase of the strength of heart contraction ([3]; 300 mcg/kg intravenously): 30%
- effect on duration of arrhythmia (in words) ([5]; arrhythmias induced by adrenalin): most efficiently shortened
- effect on isolated heart (in words) ([6]; isolated heart of guinea pig): qualitatively similar to that of ergotamine, ergosine and dihydroergotamine
- effect on the strength of heart contraction (in words) ([6]; isolated heart of guinea pig): quantitatively greater effect on the strength of heart contraction
- long-duration hypertension (effect in words) [4]: The same effect
- vasoconstrictory effect [4]: vasoconstrictory effect
- mydriatic effect (in words) [7]: strongest mydriatic effect
- effect on systolic blood pressure (in words) [8, 10]: strongest effect

SMILES: CN1C[C@H](C(=O)N[C@]2(C)O[C@@]3(O)[C@@H]4CCCN4C(=O)[C@H](Cc4ccccc4)N3C2=O)C=C2c3cccc4[nH]cc(c34)C[C@H]21 [ergotamine]
- heart action (bradycardia) [1]: bradycardia

SMILES: CN1C[C@@H](C(=O)N[C@]2(C)O[C@@]3(O)[C@@H]4CCCN4C(=O)[C@H](Cc4ccccc4)N3C2=O)C=C2c3cccc4[nH]cc(c34)C[C@H]21 [ergotaminine methanesulfonate, Ergotaminine methanesulfonate]
- LD50 at 24 h [9]: > 300 mg/kg
- Shortening of arrhythmia duration ([5]; 2.0 mg/kg intraperitoneally, adrenalin 0.02 mg/kg intravenously): 28 % of control
- activation at 5.59 µg/g ([6]; Cavia porcellus, dose 5.59 mcg/g of heart, read-out: (+)inotropic (maximum)): 32%
- inhibition at 5.59 µg/g ([6]; Cavia porcellus, dose 5.59 mcg/g of heart, read-out: (-)chronotropic (maximum)): 20%
- The increase of pupil widening in comparison with the control ([7]; after 15 min.): 66.3%
- The increase of pupil widening in comparison with the control ([7]; after 30 min.): 69.8%
- The increase of pupil widening in comparison with the control ([7]; after 60 min.): 30.3%
- Systolic blood pressure ([8]; control, spontaneously hypertensive rats): 189 mm Hg
- Systolic blood pressure ([8]; day 2, 50 mcg/kg intraperitoneally): 162 mm Hg
- Systolic blood pressure ([8]; day 4, 50 mcg/kg intraperitoneally): 143 mm Hg
- Systolic blood pressure ([8]; day 6, 50 mcg/kg intraperitoneally): 131 mm Hg
- Systolic blood pressure ([8]; day 8, 50 mcg/kg intraperitoneally): 144 mm Hg
- Systolic blood pressure ([8]; day 10, 50 mcg/kg intraperitoneally): 150 mm Hg

SMILES: CN1C[C@@H](C(=O)N[C@]2(C)O[C@@]3(O)[C@@H]4CCCN4C(=O)[C@H](Cc4ccccc4)N3C2=O)C=C2c3cccc4[nH]cc(c34)C[C@H]21 [ergotaminine]
- increase of the strength of heart contraction ([3]; 250 mcg/kg intravenously): 15%
- increase of the strength of heart contraction ([3]; 300 mcg/kg intravenously): 30%
- effect on isolated heart (in words) ([6]; isolated heart of guinea pig): qualitatively similar to that of ergotamine, ergosine and dihydroergotamine
- duration of long-duration hypertension ([4]; acid addition salts, 1.5 mg/kg of body weight): more than 60 minutes
- vasoconstrictory effect [4]: vasoconstrictory effect
- effect on systolic blood pressure (in words) [8, 10]: strongest effect

— patent publication US4440772A, “Acid addition salts of dextrorotatory ergot alkaloids, a process for the preparation thereof as well as their use as medicines” (priority 1978, dated 1984)
